Assay results from ChEMBL document CHEMBL1250518, “Nonsteroidal dissociated glucocorticoid agonists containing azaindoles as steroid A-ring mimetics” (J Med Chem, 2010).

Legend:
[1] = biological target: T1, Mineralocorticoid receptor (Homo sapiens, UniProt P08235); experiment: Binding affinity to mineralocorticoid receptor expressed in baculovirus-infected insect cells using tetramethylrhodamine labeled Dexamethasone by fluorescence polarization microplate assay
T1 sequence (P08235 whole entry): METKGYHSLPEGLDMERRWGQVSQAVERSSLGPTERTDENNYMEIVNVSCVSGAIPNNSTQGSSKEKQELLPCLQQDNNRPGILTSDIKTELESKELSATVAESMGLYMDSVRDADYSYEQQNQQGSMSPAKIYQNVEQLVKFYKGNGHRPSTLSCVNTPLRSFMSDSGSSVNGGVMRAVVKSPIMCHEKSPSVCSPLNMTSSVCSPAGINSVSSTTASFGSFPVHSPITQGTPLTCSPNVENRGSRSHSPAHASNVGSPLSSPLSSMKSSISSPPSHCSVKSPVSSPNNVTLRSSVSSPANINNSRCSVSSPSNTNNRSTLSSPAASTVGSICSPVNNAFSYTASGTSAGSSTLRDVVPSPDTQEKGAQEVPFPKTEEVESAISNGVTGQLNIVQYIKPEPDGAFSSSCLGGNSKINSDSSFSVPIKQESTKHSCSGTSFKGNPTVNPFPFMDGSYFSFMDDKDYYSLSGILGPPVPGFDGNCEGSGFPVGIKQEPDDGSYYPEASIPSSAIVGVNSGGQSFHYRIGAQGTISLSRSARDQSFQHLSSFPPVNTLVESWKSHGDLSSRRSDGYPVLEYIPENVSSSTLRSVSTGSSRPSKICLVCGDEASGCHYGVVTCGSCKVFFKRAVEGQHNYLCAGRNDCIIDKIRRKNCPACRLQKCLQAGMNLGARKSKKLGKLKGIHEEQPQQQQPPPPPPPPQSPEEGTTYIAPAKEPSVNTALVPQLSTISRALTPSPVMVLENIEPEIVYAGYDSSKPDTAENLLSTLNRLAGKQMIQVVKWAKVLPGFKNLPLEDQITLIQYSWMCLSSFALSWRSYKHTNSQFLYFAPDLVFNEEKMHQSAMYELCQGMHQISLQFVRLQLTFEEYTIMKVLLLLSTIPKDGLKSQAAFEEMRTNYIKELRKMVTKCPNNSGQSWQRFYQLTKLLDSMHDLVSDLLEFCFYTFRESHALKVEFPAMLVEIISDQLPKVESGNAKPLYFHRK

Mus musculus [2] = experiment: Toxicity in B10.RIII mouse assessed as increase of serum insulin level at 30 mg/kg, po qd for 5 weeks; format: organism-based; set-up: dose 30 mg/kg, route oral; conditions: in vivo, 840 h
Mus musculus [3] = experiment: Toxicity in collagen and Freund's complete adjuvant-induced B10.RIII mouse arthritis model assessed as increase of free fatty acids level at 30 mg/kg, po qd for 5 weeks; format: organism-based; set-up: dose 30 mg/kg, route oral; conditions: in vivo, 840 h
Mus musculus [4] = experiment: Toxicity in B10.RIII mouse assessed as increase of triglyceride level at 30 mg/kg, po qd for 5 weeks; format: organism-based; set-up: dose 30 mg/kg, route oral; conditions: in vivo, 840 h
Mus musculus [5] = experiment: Toxicity in collagen and Freund's complete adjuvant-induced B10.RIII mouse arthritis model assessed as increase of body fat content at 30 mg/kg, po qd for 5 weeks; format: organism-based; set-up: dose 30 mg/kg, route oral; conditions: in vivo, 840 h
Mus musculus [6] = experiment: Toxicity in collagen and Freund's complete adjuvant-induced B10.RIII mouse arthritis model assessed as increase of serum insulin level at 30 mg/kg, po qd for 5 weeks; format: organism-based; set-up: dose 30 mg/kg, route oral; conditions: in vivo, 840 h
Mus musculus [7] = experiment: Antiinflammatory effect in collagen and Freund's complete adjuvant-induced B10.RIII mouse arthritis model assessed as inhibition of disease progression administered as po qd for 5 weeks; format: functional; conditions: 840 h
Mus musculus [8] = experiment: Toxicity in B10.RIII mouse assessed as increase of body fat content at 30 mg/kg, po qd for 5 weeks; format: organism-based; set-up: dose 30 mg/kg, route oral; conditions: in vivo, 840 h
Mus musculus [9] = experiment: Toxicity in collagen and Freund's complete adjuvant-induced B10.RIII mouse arthritis model assessed as increase of triglyceride level at 30 mg/kg, po qd for 5 weeks; format: organism-based; set-up: dose 30 mg/kg, route oral; conditions: in vivo, 840 h
Mus musculus [10] = experiment: Antiinflammatory effect in collagen and Freund's complete adjuvant-induced B10.RIII mouse arthritis model assessed as inhibition of disease progression at 30 mg/kg, po qd for 5 weeks; format: functional; conditions: 840 h

C[C@]12C=CC(=O)C=C1CC[C@@H]1[C@@H]2[C@@H](O)C[C@@]2(C)[C@H]1CC[C@]2(O)C(=O)CO [PREDNISOLONE] was tested, and the IC50 [1] was 44 nM, the Activity (Mus musculus [2]) was “Toxic” and the Activity (Mus musculus [3]) was “Non-toxic”. The Activity (Mus musculus [4]) was “Toxic”, the Activity (Mus musculus [5]) was “Non-toxic” and the Activity (Mus musculus [6]) was “Non-toxic”. For the same compound, the ED50 (Mus musculus [7]) was 10 mg/kg, the Activity (Mus musculus [8]) was “Toxic” and the Activity (Mus musculus [9]) was “Toxic”. For the same compound, the inhibition in vivo at 30 mg/kg (Mus musculus [10]) was 77%.
